# According to paper PMC6934184, “Selective DNA-PKcs inhibition extends the therapeutic index of localized radiotherapy and chemotherapy” (The Journal of Clinical Investigation, 2019):
# Molecular target: T1, MAP3K5 (ASK1) (Homo sapiens, UniProt Q99683)
# T1 construct: purchased Thermo Fisher Scientific (Life Technologies) SelectScreen
# Assay: SelectScreen LanthaScreen
# Type: binding
# Details: read-out: % displacement
# In short: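 SelectScreen broad panel; activity (Z'LYTE, Adapta) plus binding formats. ATP: Km app for CSF1R Z'LYTE; 10 for CAMK1 Adapta. Readout = % per kinase.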
# T1 sequence (Q99683 whole entry): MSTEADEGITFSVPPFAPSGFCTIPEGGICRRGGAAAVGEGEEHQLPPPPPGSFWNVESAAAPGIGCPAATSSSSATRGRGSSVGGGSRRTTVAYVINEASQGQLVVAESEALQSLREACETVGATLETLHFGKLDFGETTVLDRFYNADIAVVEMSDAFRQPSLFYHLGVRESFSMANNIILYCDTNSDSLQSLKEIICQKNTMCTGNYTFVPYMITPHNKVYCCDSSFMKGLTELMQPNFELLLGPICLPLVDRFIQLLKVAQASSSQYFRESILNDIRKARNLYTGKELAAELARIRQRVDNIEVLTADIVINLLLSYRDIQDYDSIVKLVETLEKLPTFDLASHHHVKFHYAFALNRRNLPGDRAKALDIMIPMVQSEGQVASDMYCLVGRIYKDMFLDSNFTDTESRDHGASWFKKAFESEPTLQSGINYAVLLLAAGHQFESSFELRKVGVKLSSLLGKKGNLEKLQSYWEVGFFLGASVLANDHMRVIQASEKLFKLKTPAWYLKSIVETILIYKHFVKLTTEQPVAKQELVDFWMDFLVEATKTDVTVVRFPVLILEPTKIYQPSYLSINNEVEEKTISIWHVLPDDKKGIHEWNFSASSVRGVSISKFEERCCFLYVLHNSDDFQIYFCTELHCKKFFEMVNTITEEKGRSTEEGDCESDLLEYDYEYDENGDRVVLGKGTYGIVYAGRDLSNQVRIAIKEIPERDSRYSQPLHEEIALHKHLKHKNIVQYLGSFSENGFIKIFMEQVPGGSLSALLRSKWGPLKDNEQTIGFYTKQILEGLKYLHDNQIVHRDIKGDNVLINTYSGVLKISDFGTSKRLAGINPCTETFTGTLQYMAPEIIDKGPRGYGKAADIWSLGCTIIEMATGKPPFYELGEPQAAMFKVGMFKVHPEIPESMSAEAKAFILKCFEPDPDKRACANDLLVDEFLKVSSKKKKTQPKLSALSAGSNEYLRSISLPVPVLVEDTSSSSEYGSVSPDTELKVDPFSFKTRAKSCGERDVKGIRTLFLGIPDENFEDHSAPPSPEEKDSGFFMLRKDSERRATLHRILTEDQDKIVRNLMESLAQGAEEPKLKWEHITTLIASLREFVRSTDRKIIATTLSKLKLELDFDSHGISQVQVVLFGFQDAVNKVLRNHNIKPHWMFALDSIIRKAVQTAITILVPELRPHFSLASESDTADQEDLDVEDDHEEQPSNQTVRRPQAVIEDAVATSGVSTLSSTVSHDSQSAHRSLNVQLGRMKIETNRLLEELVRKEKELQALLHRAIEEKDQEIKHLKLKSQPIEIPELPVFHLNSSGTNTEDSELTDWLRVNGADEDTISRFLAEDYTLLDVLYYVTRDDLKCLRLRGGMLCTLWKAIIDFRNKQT
structure (smiles),measurement,value
CN(C(=O)CN1CCOCC1)c1ccc2sc3c(-c4cccc5c(=O)cc(N6CC7CCC(C6)O7)oc45)cccc3c2c1 [NU5455],inhibition at 1 µM,2.3%
